Results reported in patent US20100178243A1, “Novel method of stabilizing diagnostic and therapeutic compounds in a cationic carrier system” (MediGene AG, priority 2002, published 2010).
Each block holds one molecule with its values, some of them ahead of it.

Tests used:
Ea.Hy cells = assay: MTT cell viability assay, 72 h; type: cell-based; conditions: Homo sapiens
Experimental: (§1) A-375 ([…]) and Ea.Hy cells ([…]) is seeded at a constant density (2×10^4/cm^2) in 24-well plates and cultivated over night at conditions of 5-5.5% CO2, 37° C. and ˜90% humidity. At day 1, cell culture medium is replaced by a mixture of fresh medium and a series of 11 consecutive drug dilutions is added to each well (duplicates) to cover a range between 0.1 and 1000 nM final drug concentration. After 72 h, the cell viability in each well is determined by measuring the activity of mitochondrial dehydrogenases (MTT assay). In viable cells the MTT substrate is converted to a blue, cell impermeable dye (Formazan). After 1 h the medium is removed, cells are lysed with isopropanol/0.04% HCl and the amount of the blue Formazan given as optical density at a wavelength of 550 nm (OD550 nm) quantitated in an ELISA reader. The experiment is evaluated using the Sigma Plot analysis software by plotting the mean OD550 nm value against the respective drug concentration. A best fit curve is calculated based on a double-sigmoid assumption algorithm and the IC50 value is determined according to this best fit curve with the following result: […]

A-375 = assay: MTT cell viability assay, 72 h; type: cell-based; conditions: Homo sapiens
Experimental: as §1

[1] = Chemical stability of succinyl paclitaxel in aqueous solution (HPLC, paclitaxel release); type: physicochemical; conditions: for paclitaxel release: 4° C., 0.1 mM Tris-buffered
[2] = Gel filtration (Microspin S-300 HR) separation of non-associated patent blue from liposomes; type: physicochemical; conditions: 50 μl loaded on Microspin S-300 HR
Experimental: Gel filtration is employed to separate the dye (MW<1000 Da) from the colloidal liposome. The free dye is retained in the pores of the column, the liposomes are so large that they elute without retention in the void volume. It is expected that in a liposomal formulation with a lipid concentration of 10 mM approximately 2% of the aqueous phase is entrapped in the liposomes, 98% are not entrapped (Liposomes a practical approach, Ed. R. R. C. New, IRL Press, Oxford 1990). This amount of dye is to be separated from the liposome by gel filtration.
A Microspin™ S-300 HR column (Amersham) was pre-equilibrated as required in the product description and loaded with 50 μl of the neutral liposomal formulation C. The goal was to investigate whether patent blue not associated with the liposomes can be separated from the liposomal fraction as described in the literature (Reynolds, J. A.; Nozaki, Y.; Tanford, C. Gel-exclusion chromatography on S1000 Sephacryl: application to phospholipid vesicles. Anal Biochem 1983, 130 (2), 471-474.) The majority of the dye was retained on the column, a slightly blue solution eluted (liposomes with associated dye; about 2% as estimated by UV spectroscopy). This illustrates that for neutral liposomes we can apply well-established separation protocols to separate un-associated material. […]

A-375 Melanoma = assay: Treatment of A-375 melanoma in NMRI nude mice with Taxol and SuccTXL cationic liposomes; type: in vivo; conditions: iv, three times a week for three weeks, equitoxic doses; s.c. A-375 tumors; FIG. 9
Experimental: NMRI-nude mice from Elevage Janvier and housed in isolated ventilated cages under save environmental conditions (SPF facility, 22° C., 30-70% humidity, 12 h light/dark cycle) with food and water ad libitum. Experimental design was reviewed and approved by local government.
Tumor cells (A-375 human melanoma cell line, ATCC Nr.: CRL-1619) were grown as described in the data sheet supplied by ATCC. Tumor cells (5×10^6 in PBS) were inoculated s.c. in the right dorsal flank of mice in a volume of 50 μl on day 0.
Mice were assigned to the experimental groups (8 animals per cage), housed and handled (including monitoring of the body weight gain) at least five days before tumor inoculation (=day −6 to 0). Drug treatment begins after the tumors reached a volume of approximately 100 mm^3. […] Equitoxic doses of the compounds were determined in separate experiments, where toxicity was evaluated based on haematological parameters, body weight and animal clinical observations. […]
Animals were clinically monitored during the whole experiment and for at least one week after treatment was finished. […] The tumor dimensions were measured by calliper and the tumor size was calculated according to the following formula: V=πLW^2/6 (L=greatest length, W=width of perpendicular axis). […] The number of red and white blood cells and platelets were determined using an automated cell counter (Abbott Cell Dyn 3500).

[3] = Liposomal fluoride concentration after dialysis (ion chromatography); type: physicochemical; conditions: rehydrated with 150 mM sodium fluoride, 3 dialysis steps
Experimental: The lipids (either 10 mM DOTAP or 10 mM DOPC) are dissolved in chloroform and the solution is transferred into a round bottom flask. The organic solvent is evaporated under reduced pressure forming a clear lipid film on the flask's surface. This film is dried at 40° C. under vacuum (3 to 5 mbar) for about 60 minutes. Then, the film is rehydrated with the appropriate volume of an aqueous 150 mM sodium fluoride solution resulting in a liposomal solution. The next day, the liposomal solution is extruded 5 times through a 200 nm membrane. The size of the liposomes is determined by PCS (Zetasizer 1000 and 3000, Malvern Instruments). The fluoride that is not associated with the liposomes is removed by 3 successive dialysis steps (8 hours, Pierce, Slide-A-Lyzer dialysis cassette; 10000 molecular weight cut off) and the liposomal fluoride concentration is established by ion chromatography. For cationic 10 mM DOTAP liposomes the fluoride concentration is 1.3 mM, whereas the fluoride ion concentration is about 4 times lower for neutral 10 mM DOPC liposomes (0.3 mM fluoride). The far lower fluoride ion concentration of neutral liposomes is explained by the attractive forces of cationic lipids interacting with the negatively charged halide anion.

[4] = Diafiltration: retention of fluorescein dyes in liposome suspension (direct loading); type: physicochemical; conditions: for Conc. marker after diafiltration: 25 mM
Text: Liposomes may be formed by the well-known film method, such as described in the literature.[1] Briefly, from the organic solution of the lipid, or the lipid plus the drug, the solvent is evaporated, and a thin film of lipid (or lipid plus drug) is formed at the inner wall of a flask. The thin molecular film is resuspended in an aqueous phase, which contains the dye, and which may contain further components such as buffers, ions, cryoprotectants, etc. A typical formulation consists of a suspension of 25 mM DOTAP/DOPC 1:1, which is resuspended by a 5 mM solution of the dye.
(§2) As an example, in table 1 the results from some experiments are given. For comparison as well a formulation with anionic lipids was performed. For the anionic liposomes, most of the dye is lost during diafiltration, while for the cationic liposomes a large molar fraction of the dye remains immobilized in the lioposme suspension. […] For the CF experiments a lower bulk concentration of the dye was selected, because in that case binding is so strong, that for higher concentrations the liposomes will be destabilized due to the sterical hindrance by the CF molecules. The fraction of dye which was found immobilized in the suspensions from cationic liposomes was much higher that for the (anionic) DOPG containing liposomes. A band shift (λ max) in the absorption spectrum was observed, which increased as AF<F<CF, indication increasing binding strength. On the contrary, for the DOPG liposomes, no shift of the absorption maximum occurred. This can be seen most clearly in FIG. 1, where the complete spectra for the free and the liposomal dyes are depicted.
Separation of low molecular compounds from the liposomal suspensions Diafiltration techniques were used to separate low molecular components from the liposomal suspensions. For the above described 15 mM DOTAP/DOPC 1:1 formulations with 5 mM dye in the aqueous phase, ca. 50% of the dye was retained in the liposome suspension for AF, and 60% was retained for F. With 0.5 mM of CF, virtually 100% of the dye was retained in the solution (the amount of released dye was monitored by UV-vis)spectroscopy.

[5] = UV-vis absorption maximum (band shift) of liposome-associated fluorescein dyes; type: physicochemical; conditions: 25 mM
Experimental: as §2, with “depicted. All stages of formulation are monitored by HPLC analysis (lipid and drug) and by UV-vis spectroscopy. In HPLC analysis a slight loss of material after extrusion may be observed. UV-vis spectroscopy serves as a qualitative means in order to control formulation efficacy. The UV-vis spectra of the dye are shifted on binding to the lipid. The band shift is a function of the binding constant and the fraction of lipid bound and free dye can be estimated by UV-vis spectroscopy.” for “depicted.”

[6] = Remote loading of DOTAP/DOPC liposomes with AF, dialysis and UV-vis; type: physicochemical; conditions: remote loading: 25 mM DOTAP/DOPC liposomes mixed with equal volume of 5 mM AF
Experimental: The association of the dye to the liposomes can be performed as well to an already prepared formulation, by simply mixing the dye solution with the liposome suspension. […] The efficacy of the loading can be determined by diafiltration and by UV-vis and fluorescence spectroscopy of the suspension. As an example the results from remote loading of DOTAP/DOPC liposomes with AF (the most weakly binding fluorescein variety) are given. A 25 mM suspension of the pure lipid liposomes was prepared by the standard procedure. Then a 5 mM solution of AF was added to the suspension (equal volumina). Subsequently the suspension was dialyzed in order to remove the free dye. The dye content in the solution was controlled by UV-vis spectroscopy. In FIG. 2, the spectra after mixing, after dialysis, and after addition of triton are shown. The triton was added in order to destroy the liposomes and the release the lipid-bound dye.

- IC50 (A-375): 10 nM
- paclitaxel release ([1]; pH 5, after 9 days): 4%
- paclitaxel release ([1]; pH 7, after 9 days): 4%
- paclitaxel release ([1]; pH 9, after 9 days): 70%
- paclitaxel release (in words) ([1]; 40° C., all pH values (5, 7, 9), within 56 hours): intensive release of paclitaxel
Molecule: CC(=O)O[C@H]1C(=O)[C@@]2(C)C([C@H](OC(=O)c3ccccc3)[C@]3(O)C[C@H](OC(=O)C(OC(=O)CCC(=O)O)C(NC(=O)c4ccccc4)c4ccccc4)C(C)=C1C3(C)C)[C@]1(OC(C)=O)CO[C@@H]1C[C@@H]2O (stereo partly drawn) [succinyl paclitaxel]
- IC50 (Ea.Hy cells): 17 nM

- IC50 (A-375): 2 nM
Molecule: CC(=O)O[C@H]1C(=O)[C@@]2(C)[C@H]([C@H](OC(=O)c3ccccc3)[C@]3(O)C[C@H](OC(=O)[C@H](O)[C@@H](NC(=O)c4ccccc4)c4ccccc4)C(C)=C1C3(C)C)[C@]1(OC(C)=O)CO[C@@H]1C[C@@H]2O [Taxol ®, Paclitaxel]
- IC50 (Ea.Hy cells): 3 nM
- tumor growth rate (in words) (A-375 Melanoma): reduced the tumor growth only to a limited extent

- liposomal fluoride concentration ([3]; cationic 10 mM DOTAP liposomes): 1.3 mM
- liposomal fluoride concentration ([3]; neutral 10 mM DOPC liposomes): 0.3 mM
Molecule: [F-].[Na+] [fluoride, sodium fluoride]

The remaining lines, values behind:

Molecule: CCN(CC)c1ccc(C(=C2C=CC(=[N+](CC)CC)C=C2)c2cc(O)c(S(=O)(=O)O)cc2S(=O)(=O)O)cc1 [PB, Patent blue]
- separation of dye from liposomes on gel filtration column (in words) [2]: trapped in the pores of the column material

Molecule: carboxy-fluorescein [CF]
- dye retained in the liposome suspension after diafiltration ([4]; 15 mM DOTAP/DOPC 1:1, 0.5 mM of CF): ~100%
- Conc. marker after diafiltration ([4]; DOPG/DOPC 95/5 (anionic) liposomes, conc. before diafiltration 1.9 mg/ml): 120 µg/mL
- Conc. marker after diafiltration ([4]; DOTAP/DOPC 50/50 liposomes, conc. before diafiltration 0.19 mg/ml): 190 µg/mL
- λ max ([5]; DOPG/DOPC 95/5 liposomes): 492.6 nm
- λ max ([5]; DOTAP/DOPC 50/50 liposomes): 506 nm

Molecule: Nc1ccc(-c2c3ccc(=O)cc-3oc3cc(O)ccc23)c(C(=O)O)c1 [AF, aminofluorescein]
- dye retained in the liposome suspension after diafiltration ([4]; 15 mM DOTAP/DOPC 1:1, 5 mM dye in the aqueous phase): ca. 50%
- Conc. marker after diafiltration ([4]; DOTAP/DOPC 50/50 liposomes, conc. before diafiltration […]): 800 µg/mL
- λ max ([5]; DOTAP/DOPC 50/50 liposomes): 497.6 nm
- dye remained bound to the liposomes after dialysis [6]: ca. 50%
